From PubChem BioAssay (NCI)
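Values below derive from 48-hour exposures of cells grown in 96-well plates, with endpoints linearly interpolated between the two concentrations bracketing the appropriate inhibition level. GI50: concentration for 50% inhibition of growth. TGI marks complete inhibition of growth.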

What was measured:
Assay in all cases: NCI tumour cell line growth inhibition, 48 h; in the data active = GI50 below about 0.43 µM; inactive = the rest
SW-620 colon = tested on: SW-620 colon
RPMI-8226 leukemia = tested on: RPMI-8226 leukemia
COLO 205 colon = tested on: COLO 205 colon
HT29 colon = tested on: HT29 colon
SF-268 CNS = tested on: SF-268 CNS
SK-MEL-2 melanoma = tested on: SK-MEL-2 melanoma
KM12 colon = tested on: KM12 colon
NCI/ADR-RES ovarian = tested on: NCI/ADR-RES ovarian
MALME-3M melanoma = tested on: MALME-3M melanoma
LOX IMVI melanoma = tested on: LOX IMVI melanoma

C[C@]12CC[C@@H]3c4ccc(O)c([N+](=O)[O-])c4CC[C@H]3[C@@H]1CC[C@@H]2NS(=O)(=O)c1cccc(Br)c1
7.26 µM: TGI (COLO 205 colon)
10.3 µM: TGI (SF-268 CNS)
5.34 µM: TGI (SK-MEL-2 melanoma)
9.42 µM: TGI (SW-620 colon)
inactive: GI50 (SW-620 colon) 2.7 µM | GI50 (RPMI-8226 leukemia) 2.44 µM | GI50 (COLO 205 colon) 2.78 µM | GI50 (HT29 colon) 1.94 µM | GI50 (SF-268 CNS) 2.99 µM | GI50 (SK-MEL-2 melanoma) 2.35 µM | GI50 (KM12 colon) 1.89 µM | GI50 (NCI/ADR-RES ovarian) 2.69 µM | GI50 (MALME-3M melanoma) 2.17 µM
8.55 µM: TGI (NCI/ADR-RES ovarian)
3.92 µM: TGI (HT29 colon)
5.4 µM: TGI (MALME-3M melanoma)
4.05 µM: TGI (KM12 colon)
6.27 µM: TGI (RPMI-8226 leukemia)

C[C@H]1CCC/C=C/[C@@H]2C[C@H](O)C[C@H]2[C@H](O)[C@@H](SCC(O)CO)CC(=O)O1 (stereo partly drawn)
34.4 µM: TGI (COLO 205 colon)
20 µM: TGI (KM12 colon)
40.8 µM: TGI (HT29 colon)
66.9 µM: TGI (SK-MEL-2 melanoma)
> 100 µM: TGI (SW-620 colon) | TGI (SF-268 CNS) | TGI (NCI/ADR-RES ovarian) | TGI (MALME-3M melanoma)
inactive: GI50 (SW-620 colon) 30.9 µM | GI50 (COLO 205 colon) 17.5 µM | GI50 (HT29 colon) 10.2 µM | GI50 (SF-268 CNS) 10.9 µM | GI50 (SK-MEL-2 melanoma) 25.2 µM | GI50 (KM12 colon) 3.81 µM | GI50 (NCI/ADR-RES ovarian) > 100 µM | GI50 (MALME-3M melanoma) > 100 µM

C=CCn1c2c(sc1=S)C(S)N=CN2 (stereo not drawn)
> 100 µM: TGI (SW-620 colon) | TGI (RPMI-8226 leukemia) | TGI (LOX IMVI melanoma) | TGI (COLO 205 colon) | TGI (HT29 colon) | TGI (SF-268 CNS) | TGI (SK-MEL-2 melanoma) | TGI (KM12 colon) | TGI (MALME-3M melanoma)

O=C(O)CSc1n[nH]c(Cc2ccccc2)n1
> 100 µM: TGI (SW-620 colon) | TGI (RPMI-8226 leukemia) | TGI (LOX IMVI melanoma) | TGI (HT29 colon) | TGI (SF-268 CNS) | TGI (SK-MEL-2 melanoma) | TGI (KM12 colon) | TGI (MALME-3M melanoma)

CC1=C(C(=O)NNS(=O)(=O)c2ccc(C)cc2)CC(C(=O)NNS(=O)(=O)c2ccc(C)cc2)=C(C)N1
> 100 µM: TGI (SW-620 colon) | TGI (RPMI-8226 leukemia) | TGI (LOX IMVI melanoma) | TGI (COLO 205 colon) | TGI (HT29 colon) | TGI (SF-268 CNS) | TGI (SK-MEL-2 melanoma) | TGI (KM12 colon) | TGI (MALME-3M melanoma)

CCOc1ccccc1NC(=O)C(=O)Cc1nc2ccccc2s1
> 100 µM: TGI (SW-620 colon) | TGI (COLO 205 colon) | TGI (HT29 colon) | TGI (SF-268 CNS) | TGI (SK-MEL-2 melanoma) | TGI (KM12 colon) | TGI (MALME-3M melanoma)

O=C1C(=O)N(c2cc(Cl)ccc2Cl)C(=O)C(=O)C1c1nc2ccccc2o1
> 31.6 µM: TGI (KM12 colon)
> 100 µM: TGI (SW-620 colon) | TGI (RPMI-8226 leukemia) | TGI (LOX IMVI melanoma) | TGI (COLO 205 colon) | TGI (HT29 colon) | TGI (SF-268 CNS) | TGI (SK-MEL-2 melanoma) | TGI (MALME-3M melanoma)

N.N.NCCCCCCCCCN.O=C([O-])CC(=O)[O-].O=C([O-])CC(=O)[O-].[Pt+4].[Pt+4]
inactive: GI50 (SW-620 colon) 66.4 µM | GI50 (RPMI-8226 leukemia) > 100 µM | GI50 (LOX IMVI melanoma) > 100 µM | GI50 (COLO 205 colon) > 100 µM | GI50 (HT29 colon) > 100 µM | GI50 (SF-268 CNS) > 100 µM | GI50 (SK-MEL-2 melanoma) > 100 µM | GI50 (KM12 colon) > 100 µM | GI50 (MALME-3M melanoma) 28.9 µM
73.3 µM: TGI (MALME-3M melanoma)
> 100 µM: TGI (SW-620 colon) | TGI (RPMI-8226 leukemia) | TGI (LOX IMVI melanoma) | TGI (COLO 205 colon) | TGI (HT29 colon) | TGI (SF-268 CNS) | TGI (SK-MEL-2 melanoma) | TGI (KM12 colon)

Cc1cccc(N=C2NC(=O)C(CC(=O)Nc3cccc(C)c3C)S2)c1 (stereo not drawn)
> 100 µM: TGI (SW-620 colon) | TGI (RPMI-8226 leukemia) | TGI (LOX IMVI melanoma) | TGI (COLO 205 colon) | TGI (HT29 colon) | TGI (SF-268 CNS) | TGI (SK-MEL-2 melanoma) | TGI (KM12 colon) | TGI (MALME-3M melanoma)
